Where two headings read alike, the source gives them in different places.
Legend:
[1] = test system: C. Las (Candidatus Liberibacter asiaticus); type: in vivo; conditions: HLB-positive citrus plants, trunk delivery
[2] = test system: C. Lso (Ca. L. solanacearum); type: in vivo, Candidatus Liberibacter solanacearum
[3] = test system: C. Lso (Ca. L. solanacearum); type: in vivo, Candidatus Liberibacter solanacearum; remark: listed apart in the source
[4] = test system: sweet orange leaves; conditions: in vivo
[5] = test system: human protease pepsin
[6] = test system: Ca. L. solanacearum; type: in vivo, Candidatus Liberibacter solanacearum; conditions: 30 μM peptide by stem injection; for growth of infected plants compared to mock treatment: Ca. L. solanacearum-infected Nb plants, 3 weeks of treatment, FIG. 3A; for bacterial titer compared to plants treated with mock solution: Ca. L. solanacearum-infected plants, FIGS. 3B and 7

Molecule	bacteria detected in the treated trees [1]	reduction of bacterial titer of treated trees ([1]; FIG. 4: 100 nM or 10 μM once, 5 weeks)	symptoms of new shoots and leaves from the treated trees ([1]; mock treated plants still have yellow patch symptoms)	disease symptom ([2]; C. Lso-infected potato, FIG. 5)	yield of tuber production ([2]; C. Lso-infected potato, FIG. 5)	plant growth after C. Lso infection ([2]; potato plants pre-treated with SAMP 10 μM vs mock, exposed to C. Lso positive potato psyllids 5 days, 3 weeks post infection)	disease symptom ([3]; C. Lso-infected tomato, FIG. 6)	plant growth after C. Lso infection ([3]; tomato plants pre-treated with SAMP vs mock, exposed to C. Lso positive potato psyllids 5 days, 4 weeks post infection)	cell death in leaves [4]	time to complete digestion by pepsin [5]	growth of infected plants compared to mock treatment [6]	bacterial titer compared to plants treated with mock solution [6]
SAMP	No bacteria were detected	30-100 folds	no longer symptomatic	clearly inhibited	increased	grew better	largely reduced	grew better	No cell death	≤ 45 min		
CghSAMPa: stable antimicrobial peptide from Eremocitrus glauca x citrus sp., SEQ ID NO: 1, expressed and purified in E. coli (protein) MCCNRGKNVSIENLHQGFTHIFESTFESTEGVAEYVSHPSHVEYANLFLANLEKVLVIDYKPTTVRV											grow much better	much lower
CghSAMPb: stable antimicrobial peptide from Eremocitrus glauca x citrus sp., SEQ ID NO: 2, expressed and purified in E. coli (protein) MCCNRGKNVSIENLHQGFPHLFEFTFESTEGVAEYVSHPAHVEYANLFLANLEKVLVIDYKPTTVRV											grow much better	much lower
